One assay relates to MOLM-13. The assay is described as follows: Cell growth inhibition, CellTiter-Glo Luminescent Cell Viability Assay, MOLM-13. Conditions: MOLM-13 cells, 4 days incubation. Format: cell-based. The procedure:
(§1) Cell growth inhibitory activity of representative Compounds of the Disclosure was determined in various cell lines using CellTiter-Glo® Luminescent Cell Viability Assay. Cells were seeded in 384-well white opaque cell culture plates at a density of 2,000 cells/well with serially diluted compounds and incubated at 37° C. in an atmosphere of 95% air and 5% CO2 for 4 days. Cell viability was determined using the CellTiter-Glo® Luminescent Cell Viability Assay Kit (Promega, Madison, Wis.) according to the manufacture's instruction. Briefly, a volume of CellTiter-Glo® Reagent equal to the volume of cell culture medium was added to each well, and then the plates were incubated at room temperature for 10-20 minutes. The luminescent signal was measured using a Tecan Infinite M1000 multimode microplate reader (Tecan, Morrisville, N.C.). The half maximal inhibitory concentration (IC50) was calculated using the GraphPad Prism 5 software (GraphPad Software, La Jolla, Calif.).

In another assay the test system is MDA-MB-231. The assay is described as follows: Cell growth inhibition, CellTiter-Glo Luminescent Cell Viability Assay, MDA-MB-231. To be noted: MDA-MB-231 cells, 4 days incubation. Format: cell-based. The protocol:
as §1
(In general: Cellular ATP, detected with luciferase, serves as a proxy for viable cell number.)

Each structure is given as a SMILES string.

From US10975093B2, “Fused 1,4-diazepines as BET protein degraders” (THE REGENTS OF THE UNIVERSITY OF MICHIGAN, priority 2016, dated 2021) come the findings set out here.

With `Cc1c(C#Cc2cnn(CCCn3cnc(COc4cccc5c4C(=O)N(C4CCC(=O)NC4=O)C5=O)c3)c2)sc2c1C(c1ccc(Cl)cc1)=NCc1nnc(C)n1-2` (stereo not drawn) [compound 155, 4-((1-(3-(4-((4-(4-chlorophenyl)-3,9-dimethyl-6H-thieno[3,2-f][1,2,4]triazolo[4,3-a][1,4]diazepin-2-yl)ethynyl)-1H-pyrazol-1-yl)propyl)-1H-imidazol-4-yl)methoxy)-2-(2,6-dioxopiperidin-3-yl)isoindoline-1,3-dione], the half-inhibitory concentration (IC50) is above 100 nM in the assay with MOLM-13 (Homo sapiens, MOLM-13, 96 h) and above 100 nM with MDA-MB-231 (Homo sapiens, MDA-MB-231, 96 h).

For `Cc1c(C#Cc2cnn(CCCn3cnc(COc4cccc5c4CN(C4CCC(=O)NC4=O)C5=O)c3)c2)sc2c1C(c1ccc(Cl)cc1)=NCc1nnc(C)n1-2` (stereo not drawn) [compound 156, 3-(4-((1-(3-(4-((4-(4-chlorophenyl)-3,9-dimethyl-6H-thieno[3,2-f][1,2,4]triazolo[4,3-a][1,4]diazepin-2-yl)ethynyl)-1H-pyrazol-1-yl)propyl)-1H-imidazol-4-yl)methoxy)-1-oxoisoindolin-2-yl)piperidine-2,6-dione], the concentration for half-maximal inhibition (IC50) in the assay on MOLM-13 (Homo sapiens, MOLM-13, 96 h) stood at 12.8 nM; with MDA-MB-231 (Homo sapiens, MDA-MB-231, 96 h), 17.6 nM.

Consider `Cc1c(C#Cc2cnn(CCCC#Cc3ccc4c(c3)C(=O)N(C3CCC(=O)NC3=O)C4=O)c2)sc2c1C(c1ccc(Cl)cc1)=NCc1nnc(C)n1-2` (stereo not drawn) [compound 157, 5-(5-(4-((4-(4-chlorophenyl)-3,9-dimethyl-6H-thieno[3,2-f][1,2,4]triazolo[4,3-a][1,4]diazepin-2-yl)ethynyl)-1H-pyrazolo-1-yl)pent-1-yn-1-yl)-2-(2,6-dioxopiperidin-3-yl)isoindoline-1,3-dione], for which the IC50 came out at 18.6 nM in the assay with MOLM-13 (Homo sapiens, MOLM-13, 96 h) and 52.7 nM with MDA-MB-231 (Homo sapiens, MDA-MB-231, 96 h).

In the case of `Cc1c(C#Cc2cnn(CCCC#Cc3ccc4c(c3)C(=O)N(C3CCC(=O)NC3=O)C4=O)c2)sc2c1C(c1ccc(Cl)cc1)=N[C@@H](C)c1nnc(C)n1-2` (stereo partly drawn) [compound 158, 5-(5-(4-(((S)-4-(4-chlorophenyl)-3,6,9-trimethyl-6H-thieno[3,2-f][1,2,4]triazolo[4,3-a][1,4]diazepin-2-yl)ethynyl)-1H-pyrazolo-1-yl)pent-1-yn-1-yl)-2-(2,6-dioxopiperidin-3-yl)isoindoline-1,3-dione], the IC50 with MOLM-13 (Homo sapiens, MOLM-13, 96 h) was determined as 2.5 nM; in the assay on MDA-MB-231 (Homo sapiens, MDA-MB-231, 96 h) it was 7.2 nM.

As to `Cc1c(C#Cc2cnn(CCCC#Cc3cccc4c3C(=O)N(C3CCCNC3=O)C4=O)c2)sc2c1C(c1ccc(Cl)cc1)=NCc1nnc(C)n1-2` (stereo not drawn) [compound 159, 4-(5-(4-((4-(4-chlorophenyl)-3,9-dimethyl-6H-thieno[3,2-f][1,2,4]triazolo[4,3-a][1,4]diazepin-2-yl)ethynyl)-1H-pyrazol-1-yl)pent-1-yn-1-yl)-2-(2-oxopiperidin-3-yl)isoindoline-1,3-dione], the IC50 in the assay on MOLM-13 (Homo sapiens, MOLM-13, 96 h) is above 100 nM; in the assay with MDA-MB-231 (Homo sapiens, MDA-MB-231, 96 h) it was above 100 nM.

For the compound `Cc1c(C#Cc2cnn(CCCC#Cc3cccc4c3C(=O)N(C3CCCNC3=O)C4=O)c2)sc2c1C(c1ccc(Cl)cc1)=N[C@@H](C)c1nnc(C)n1-2` (stereo partly drawn) [compound 160, 4-(5-(4-(((S)-4-(4-chlorophenyl)-3,6,9-trimethyl-6H-thieno[3,2-f][1,2,4]triazolo[4,3-a][1,4]diazepin-2-yl)ethynyl)-1H-pyrazol-1-yl)pent-1-yn-1-yl)-2-(2-oxopiperidin-3-yl)isoindoline-1,3-dione], the IC50 in the assay with MOLM-13 (Homo sapiens, MOLM-13, 96 h) was determined as 42.6 nM; in the assay with MDA-MB-231 (Homo sapiens, MDA-MB-231, 96 h) it was 58.8 nM.

As to `Cc1c(C#Cc2ccc(CCCC#Cc3cccc4c3CN(C3CCC(=O)NC3=O)C4=O)nc2)sc2c1C(c1ccc(Cl)cc1)=N[C@@H](C)c1nnc(C)n1-2` (stereo partly drawn) [compound 166, 3-(4-(5-(5-(((S)-4-(4-chlorophenyl)-3,6,9-trimethyl-6H-thieno[3,2-f][1,2,4]triazolo[4,3-a][1,4]diazepin-2-yl)ethynyl)pyridin-2-yl)pent-1-yn-1-yl)-1-oxoisoindolin-2-yl)piperidine-2,6-dione], the IC50 with MOLM-13 (Homo sapiens, MOLM-13, 96 h) was 0.9 nM; with MDA-MB-231 (Homo sapiens, MDA-MB-231, 96 h), 0.6 nM.

For `Cc1c(C#Cc2ccc(CN3CCC(CNc4cccc5c4CN(C4CCC(=O)NC4=O)C5=O)CC3)cn2)sc2c1C(c1ccc(Cl)cc1)=NCc1nnc(C)n1-2` (stereo not drawn) [compound 167, 3-(4-(((1-((6-((4-(4-chlorophenyl)-3,9-dimethyl-6H-thieno[3,2-f][1,2,4]triazolo[4,3-a][1,4]diazepin-2-yl)ethynyl)pyridin-3-yl)methyl)piperidin-4-yl)methyl)amino)-1-oxoisoindolin-2-yl)piperidine-2,6-dione], the IC50 in the assay on MOLM-13 (Homo sapiens, MOLM-13, 96 h) came to 6.2 nM; with MDA-MB-231 (Homo sapiens, MDA-MB-231, 96 h), 7.2 nM.

Consider `Cc1c(C#Cc2cnn(C[C@H]3CC[C@H](Nc4cccc5c4CN(C4CCC(=O)NC4=O)C5=O)CC3)c2)sc2c1C(c1ccc(Cl)cc1)=N[C@@H](C)c1nnc(C)n1-2` (stereo partly drawn) [compound 171, 3-(4-(((1S,4r)-4-((4-(((S)-4-(4-chlorophenyl)-3,6,9-trimethyl-6H-thieno[3,2-f][1,2,4]triazolo[4,3-a][1,4]diazepin-2-yl)ethynyl)-1H-pyrazol-1-yl)methyl)cyclohexyl)amino)-1-oxoisoindolin-2-yl)piperidine-2,6-dione], for which the IC50 in the assay on MOLM-13 (Homo sapiens, MOLM-13, 96 h) worked out at 0.6 nM; with MOLM-13, 0.8 nM; in the assay with MDA-MB-231 (Homo sapiens, MDA-MB-231, 96 h), 0.9 nM; in the assay with MDA-MB-231, 1 nM.

For `Cc1c(C#Cc2cnn(C[C@H]3CC[C@@H](Nc4cccc5c4CN(C4CCC(=O)NC4=O)C5=O)CC3)c2)sc2c1C(c1ccc(Cl)cc1)=N[C@@H](C)c1nnc(C)n1-2` (stereo partly drawn) [compound 172, 3-(4-(((1R,4s)-4-((4-(((S)-4-(4-chlorophenyl)-3,6,9-trimethyl-6H-thieno[3,2-f][1,2,4]triazolo[4,3-a][1,4]diazepin-2-yl)ethynyl)-1H-pyrazol-1-yl)methyl)cyclohexyl)amino)-1-oxoisoindolin-2-yl)piperidine-2,6-dione], the half-inhibitory concentration (IC50) with MOLM-13 (Homo sapiens, MOLM-13, 96 h) was 2.3 nM; with MDA-MB-231 (Homo sapiens, MDA-MB-231, 96 h) it was 4.4 nM.

`Cc1c(C#Cc2cnn(C[C@H]3C[C@H](Nc4cccc5c4CN(C4CCC(=O)NC4=O)C5=O)C3)c2)sc2c1C(c1ccc(Cl)cc1)=N[C@@H](C)c1nnc(C)n1-2` (stereo partly drawn) [compound 173, 3-(4-(((1S,3r)-3-((4-(((S)-4-(4-chlorophenyl)-3,6,9-trimethyl-6H-thieno[3,2-f][1,2,4]triazolo[4,3-a][1,4]diazepin-2-yl)ethynyl)-1H-pyrazol-1-yl)methyl)cyclobutyl)amino)-1-oxoisoindolin-2-yl)piperidine-2,6-dione]: the IC50 in the assay with MOLM-13 (Homo sapiens, MOLM-13, 96 h) turned out to be 3.3 nM; in the assay with MDA-MB-231 (Homo sapiens, MDA-MB-231, 96 h) it was 4.6 nM.

For `Cc1c(C#Cc2cnn(CCN3CC(CNc4cccc5c4CN(C4CCC(=O)NC4=O)C5=O)C3)c2)sc2c1C(c1ccc(Cl)cc1)=N[C@@H](C)c1nnc(C)n1-2` (stereo partly drawn) [compound 175, 3-(4-(((1-(2-(4-(((S)-4-(4-chlorophenyl)-3,6,9-trimethyl-6H-thieno[3,2-f][1,2,4]triazolo[4,3-a][1,4]diazepin-2-yl)ethynyl)-1H-pyrazol-1-yl)ethyl)azetidin-3-yl)methyl)amino)-1-oxoisoindolin-2-yl)piperidine-2,6-dione], the IC50 with MOLM-13 (Homo sapiens, MOLM-13, 96 h) is 0.35 nM; in the assay on MDA-MB-231 (Homo sapiens, MDA-MB-231, 96 h), 1.5 nM.

Take `Cc1c(C#Cc2cnn(CCCN3CCN(c4cccc5c4C(=O)N(C4CCC(=O)NC4=O)C5=O)CC3)c2)sc2c1C(c1ccc(Cl)cc1)=N[C@@H](C)c1nnc(C)n1-2` (stereo partly drawn) [compound 178, 4-(4-(3-(4-(((S)-4-(4-chlorophenyl)-3,6,9-trimethyl-6H-thieno[3,2-f][1,2,4]triazolo[4,3-a][1,4]diazepin-2-yl)ethynyl)-1H-pyrazol-1-yl)propyl)piperazin-1-yl)-2-(2,6-dioxopiperidin-3-yl)isoindoline-1,3-dione]: the IC50 with MOLM-13 (Homo sapiens, MOLM-13, 96 h) amounted to 1 nM; in the assay with MDA-MB-231 (Homo sapiens, MDA-MB-231, 96 h) it was 0.6 nM.

With `Cc1c(C#Cc2cnn(CCCC#Cc3ccc4c(c3)CN(C3CCC(=O)NC3=O)C4=O)c2)sc2c1C(c1ccc(Cl)cc1)=N[C@@H](C)c1nnc(C)n1-2` (stereo partly drawn) [compound 179, 3-(5-(5-(4-(((S)-4-(4-chlorophenyl)-3,6,9-trimethyl-6H-thieno[3,2-f][1,2,4]triazolo[4,3-a][1,4]diazepin-2-yl)ethynyl)-1H-pyrazol-1-yl)pent-1-yn-1-yl)-1-oxoisoindolin-2-yl)piperidine-2,6-dione], the concentration for half-maximal inhibition (IC50) amounted to 0.9 nM with MOLM-13 (Homo sapiens, MOLM-13, 96 h) and 0.2 nM in the assay with MDA-MB-231 (Homo sapiens, MDA-MB-231, 96 h).

For the compound `Cc1c(C#Cc2cnn(CCCCCc3ccc4c(c3)CN(C3CCC(=O)NC3=O)C4=O)c2)sc2c1C(c1ccc(Cl)cc1)=N[C@@H](C)c1nnc(C)n1-2` (stereo partly drawn) [compound 180, 3-(5-(5-(4-(((S)-4-(4-chlorophenyl)-3,6,9-trimethyl-6H-thieno[3,2-f][1,2,4]triazolo[4,3-a][1,4]diazepin-2-yl)ethynyl)-1H-pyrazol-1-yl)pentyl)-1-oxoisoindolin-2-yl)piperidine-2,6-dione], the IC50 with MOLM-13 (Homo sapiens, MOLM-13, 96 h) worked out at 0.2 nM; in the assay on MDA-MB-231 (Homo sapiens, MDA-MB-231, 96 h), 0.04 nM.

On to `Cc1c(C#Cc2ccc(CCC#Cc3cccc4c3CN(C3CCC(=O)NC3=O)C4=O)cn2)sc2c1C(c1ccc(Cl)cc1)=NCc1nnc(C)n1-2` (stereo not drawn) [compound 181, 3-(4-(4-(6-((4-(4-chlorophenyl)-3,9-dimethyl-6H-thieno[3,2-f][1,2,4]triazolo[4,3-a][1,4]diazepin-2-yl)ethynyl)pyridin-3-yl)but-1-yn-1-yl)-1-oxoisoindolin-2-yl)piperidine-2,6-dione], for which the 50% inhibitory concentration (IC50) is above 1000 nM in the assay on MOLM-13 (Homo sapiens, MOLM-13, 96 h) and 532 nM with MDA-MB-231 (Homo sapiens, MDA-MB-231, 96 h).

For the compound `Cc1c(C#Cc2ccc(CCC#Cc3cccc4c3CN(C3CCC(=O)NC3=O)C4=O)cn2)sc2c1C(c1ccc(Cl)cc1)=N[C@@H](C)c1nnc(C)n1-2` (stereo partly drawn) [compound 182, 3-(4-(4-(6-(((S)-4-(4-chlorophenyl)-3,6,9-trimethyl-6H-thieno[3,2-f][1,2,4]triazolo[4,3-a][1,4]diazepin-2-yl)ethynyl)pyridin-3-yl)but-1-yn-1-yl)-1-oxoisoindolin-2-yl)piperidine-2,6-dione], the IC50 was found to be 2.8 nM with MOLM-13 (Homo sapiens, MOLM-13, 96 h) and 1.7 nM with MDA-MB-231 (Homo sapiens, MDA-MB-231, 96 h).

The IC50 is the concentration that gives 50% inhibition. A low value points to higher potency.
